Laboratory results published in DBAASP.
Converted amounts (≈) assume the structure as drawn.

Tests used:
Experiment in all cases: ≥ marks a high value that may be exact or a test limit, other limits are often not marked, values filed in µg/mL are converted to µM
[1] = test system: Staphylococcus aureus ATCC 25923
[2] = test system: Escherichia coli ATCC 25922
[3] = test system: Fusarium solani AZN 6836
[4] = test system: Candida tropicalis
[5] = test system: Fusarium oxysporum
[6] = test system: Candida albicans ATCC 24433
[7] = test system: Salmonella enterica subsp. enterica serovar Enteritidis
[8] = test system: Staphylococcus aureus ATCC 43300
[9] = test system: Aspergillus nidulans AZN 2867
[10] = test system: Aspergillus ustus
[11] = test system: Pseudomonas aeruginosa ATCC 27853
[12] = test system: Candida krusei
[13] = test system: Candida glabrata
[14] = test system: Klebsiella pneumoniae ATCC 10031
[15] = test system: Cryptococcus neoformans CM133
[16] = test system: Aspergillus fumigatus ATCC MYA-1163
[17] = test system: Rhizopus oryzae AZN 8892
[18] = test system: Enterococcus faecalis ATCC 29212
[19] = test system: Bacillus megaterium
[20] = test system: Klebsiella pneumoniae
[21] = test system: Escherichia coli 363
[22] = test system: Staphylococcus haemolyticus
[23] = test system: Salmonella typhimurium
[24] = test system: Listeria monocytogenes
[25] = test system: Escherichia coli UB1005
[26] = test system: Staphylococcus epidermidis C621
[27] = test system: Escherichia coli DC2
[28] = test system: Corynebacterium xerosis C875
[29] = test system: Legionella bozemanae ATCC 33217
[30] = test system: Legionella longbeachae ATCC 33484
[31] = test system: Legionella feeleii ATCC 35072
[32] = test system: Legionella pneumophila Corby
[33] = test system: Bacillus megaterium F04
[34] = test system: Legionella micdadei ATCC 33218
[35] = test system: Legionella pneumophila ATCC 33215
[36] = test system: Legionella oakridgensis ATCC 33761
[37] = test system: Legionella pneumophila ATCC 33216
[38] = test system: Legionella pneumophila Lens
[39] = test system: Legionella pneumophila Paris
[40] = test system: Legionella pneumophila ATCC 33155
[41] = test system: Salmonella enterica subsp. enterica serovar Typhimurium ATCC 700408
[42] = test system: Listeria monocytogenes ATCC 19115
[43] = test system: Klebsiella pneumoniae ATCC 13883
[44] = test system: Staphylococcus aureus ATCC BAA-39
[45] = test system: Salmonella enterica subsp. enterica serovar Typhimurium ATCC 14028

Which results are given for CC(C)C[C@@H]1NC(=O)[C@@H](NC(=O)[C@@H](N)CC(=O)O)CSSC[C@@H](C(=O)O)NC(=O)CNC(=O)[C@H](CCC(=O)O)NC(=O)[C@@H]2CSSC[C@@H]3NC(=O)[C@H](C(C)C)NC(=O)[C@H](CCCN=C(N)N)NC(=O)[C@H](CCCN=C(N)N)NC(=O)[C@@H]4CSSC[C@H](NC(=O)[C@H](CCCCN)NC(=O)[C@H](CC(C)C)NC(=O)[C@H](CO)NC(=O)[C@@H]5CCCN5C(=O)[C@H](CO)NC(=O)[C@H](CSSC[C@H](NC(=O)[C@@H]5CCCN5C(=O)CNC(=O)[C@H](CCCCN)NC(=O)[C@H](Cc5ccc(O)cc5)NC(=O)[C@H](CCCN=C(N)N)NC(=O)CNC(=O)[C@H](CO)NC1=O)C(=O)N[C@@H](C)C(=O)N[C@@H](C(C)C)C(=O)N[C@@H](Cc1c[nH]c5ccccc15)C(=O)N[C@@H](CC(=O)O)C(=O)N[C@@H](CC(N)=O)C(=O)N[C@@H](CCC(=O)O)C(=O)N[C@@H]([C@@H](C)O)C(=O)N4)NC(=O)[C@H](Cc1cnc[nH]1)NC(=O)CNC(=O)[C@H](CO)NC(=O)[C@H](CO)NC(=O)[C@H](CCCN=C(N)N)NC(=O)CNC(=O)[C@H](CCC(=O)O)NC(=O)[C@H](CCC(=O)O)NC(=O)[C@H](CCCCN)NC3=O)C(=O)N[C@@H](Cc1c[nH]c3ccccc13)C(=O)N2 [DCLSGRYKGPCAVWDNETCRRVCKEEGRSSGHCSPSLKCWCEGC]?
MIC [1]: > 50 µM; MIC [2]: > 50 µM; MIC [3]: 25 µM (≈ 122 µg/mL); MIC [4]: ≥ 50 µM; MIC [5]: 6.25 µM (≈ 30.6 µg/mL); MIC [6]: ≥ 50 µM; MIC [7]: ≥ 50 µM; MIC [8]: > 50 µM; MIC [9]: ≥ 50 µM; MIC [10]: 25 µM (≈ 122 µg/mL); MIC [11]: > 50 µM; MIC [12]: ≥ 50 µM; MIC [13]: ≥ 50 µM; MIC [14]: ≥ 50 µM; MIC [15]: ≥ 50 µM; MIC [16]: 6.25 µM (≈ 30.6 µg/mL); MIC [17]: ≥ 50 µM; MIC [18]: > 50 µM

How did the MIC [19] turn out when CC[C@H](C)[C@H](NC(=O)[C@H](CCSC)NC(=O)[C@H](CC(C)C)NC(=O)[C@H](CC(C)C)NC(=O)[C@@H](NC(=O)[C@H](Cc1c[nH]c2ccccc12)NC(=O)[C@H](CC(C)C)NC(=O)[C@H](Cc1c[nH]c2ccccc12)NC(=O)[C@@H](NC(=O)[C@H](CCCCN)NC(=O)[C@H](CO)NC(=O)[C@H](CCCNC(=N)N)NC(=O)[C@H](CC(C)C)NC(=O)CN)[C@@H](C)CC)C(C)C)C(=O)N[C@@H](Cc1c[nH]c2ccccc12)C(=O)N[C@@H](CCC(N)=O)C(=O)N[C@@H](CCC(=O)O)C(=O)N[C@@H](CO)C(=O)N[C@@H](CC(N)=O)C(=O)N[C@@H](CCCCN)C(=O)N[C@@H](Cc1ccccc1)C(=O)N[C@@H](CCCCN)C(=O)N[C@@H](CCCCN)C(=O)N[C@@H](CCSC)C(=O)O [GLRSKIWLWVLLMIWQESNKFKKM] was run?
The MIC was 0.4 µM (≈ 1.21 µg/mL).

And the MIC [20]?
Its MIC is 12.5 µM (≈ 37.9 µg/mL).

And the MIC [21]?
The MIC was 3.1 µM (≈ 9.41 µg/mL).

What about the MIC [22] of the same compound?
The MIC was 12.5 µM (≈ 37.9 µg/mL).

And the MIC [23]?
The MIC was 3.1 µM (≈ 9.41 µg/mL).

What about the MIC [24] of the same compound?
Its MIC is 0.4 µM (≈ 1.21 µg/mL).

Which results are given for CC(C)C[C@H](NC(=O)[C@H](C)NC(=O)[C@H](C)NC(=O)[C@H](C)NC(=O)[C@H](CCCCN)NC(=O)[C@@H](N)CCCCN)C(=O)N[C@@H](C)C(=O)N[C@@H](C)C(=O)N[C@@H](C)C(=O)N[C@@H](C)C(=O)N[C@@H](C)C(=O)N[C@@H](CC(C)C)C(=O)N[C@@H](C)C(=O)N[C@@H](C)C(=O)N[C@@H](Cc1c[nH]c2ccccc12)C(=O)N[C@@H](C)C(=O)N[C@@H](C)C(=O)N[C@@H](CC(C)C)C(=O)N[C@@H](C)C(=O)N[C@@H](C)C(=O)N[C@@H](C)C(=O)N[C@@H](CCCCN)C(=O)N[C@@H](CCCCN)C(=O)N[C@@H](CCCCN)C(=O)N[C@@H](CCCCN)C(N)=O [KKAAALAAAAALAAWAALAAAKKKK]?
MIC [25]: ≥ 32 µM; MIC [26]: 2 µM (≈ 4.76 µg/mL); MIC [27]: 16 µM (≈ 38 µg/mL); MIC [28]: 0.25 µM (≈ 0.594 µg/mL)

For CC[C@H](C)[C@H](NC(=O)[C@H](CC(C)C)NC(=O)[C@H](CCCCN)NC(=O)[C@@H](NC(=O)[C@H](CC(C)C)NC(=O)[C@H](CC(=O)O)NC(=O)CNC(=O)[C@@H](NC(=O)[C@@H](NC(=O)[C@H](CO)NC(=O)[C@@H](NC(=O)[C@@H](NC(=O)[C@H](CC(=O)O)NC(=O)[C@H](C)NC(=O)[C@H](C)NC(=O)[C@@H](N)CCSC)[C@@H](C)CC)[C@@H](C)CC)[C@@H](C)O)[C@@H](C)CC)C(C)C)C(=O)N[C@H](C(=O)N[C@@H](CC(N)=O)C(=O)N[C@H](C(=O)N[C@H](C(=O)N[C@@H](CCCCN)C(=O)N[C@@H](CCCCN)C(=O)N[C@@H](Cc1ccccc1)C(=O)N[C@@H](CCC(N)=O)C(=O)N[C@@H](CCCCN)C(=O)O)C(C)C)[C@@H](C)O)[C@@H](C)CC [MAADIISTIGDLVKLIINTVKKFQK], which MIC [29] is on record?
Its MIC is 18.1 µM (≈ 50 µg/mL).

What about the MIC [30] of the same compound?
Its MIC is 18.1 µM (≈ 50 µg/mL).

What about the MIC [31] of the same compound?
Its MIC is 18.1 µM (≈ 50 µg/mL).

What about the MIC [32] of the same compound?
The MIC was 18.1 µM (≈ 50 µg/mL).

And the MIC [33]?
Its MIC is 4.35 µM (≈ 12 µg/mL).

What about the MIC [34] of the same compound?
Its MIC is 18.1 µM (≈ 50 µg/mL).

What about the MIC [35] of the same compound?
The MIC was 18.1 µM (≈ 50 µg/mL).

What about the MIC [36] of the same compound?
Its MIC is 18.1 µM (≈ 50 µg/mL).

And the MIC [37]?
Its MIC is 18.1 µM (≈ 50 µg/mL).

And the MIC [38]?
The MIC was 1.09 µM (≈ 3 µg/mL).

What about the MIC [39] of the same compound?
The MIC was 18.1 µM (≈ 50 µg/mL).

And the MIC [40]?
The MIC was 18.1 µM (≈ 50 µg/mL).

For CC(C)C[C@H](NC(=O)[C@H](CCCN=C(N)N)NC(=O)CNC(=O)[C@H](CCC(N)=O)NC(=O)[C@@H]1CCCN1C(=O)[C@H](CC(C)C)NC(=O)[C@H](CCCCN)NC(=O)[C@H](Cc1ccccc1)NC(=O)[C@@H](NC(=O)[C@@H]1CCCN1C(=O)[C@H](CCC(N)=O)NC(=O)[C@H](CO)NC(=O)[C@H](Cc1ccccc1)NC(=O)[C@H](CCCN=C(N)N)NC(=O)[C@@H](N)CCC(N)=O)[C@@H](C)O)C(=O)N[C@H](C(=O)N[C@@H](CC(C)C)C(=O)N[C@@H](CO)C(=O)N[C@@H](CCCN=C(N)N)C(=O)N[C@@H](CCCCN)C(=O)N[C@@H](Cc1ccccc1)C(=O)O)[C@@H](C)O [QRFSQPTFKLPQGRLTLSRKF], which MIC [41] is on record?
The MIC was 9.86 µM (≈ 25 µg/mL).

What about the MIC [1] of the same compound?
The MIC was 39.4 µM (≈ 100 µg/mL).

What about the MIC [42] of the same compound?
Its MIC is 9.86 µM (≈ 25 µg/mL).

What about the MIC [2] of the same compound?
Its MIC is 9.86 µM (≈ 25 µg/mL).

What about the MIC [43] of the same compound?
The MIC was 9.86 µM (≈ 25 µg/mL).

What about the MIC [8] of the same compound?
The MIC was 39.4 µM (≈ 100 µg/mL).

What about the MIC [44] of the same compound?
The MIC was ≥ 39.4 µM.

What about the MIC [45] of the same compound?
The MIC was 9.86 µM (≈ 25 µg/mL).
